Measured values taken from US20230143612A1 (Arbutus Biopharma Corporation, priority 2020, published 2023).

These molecules were tested against PD-L1 His protein / PD-1 Fc protein (Homo sapiens, UniProt Q9NZQ7) (assay: HTRF Assay (PD-1/PD-L1 interaction)). Details: PD-L1 His 6 nM, PD-1 Fc 6 nM.
Type: binding
Method in brief: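 Compounds tested from 20 μM down to 0.001 μM (3-fold) against 6 nM PD-L1 His and 6 nM PD-1 Fc, 15 min room temperature incubation. Detection after 1 h at room temperature with Tb cryptate anti-6HIS and XL665 anti-human IgG reagents (mixture at 0.35 nM and 6.7 nM), HTRF signal.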

Sequence of PD-L1 His protein / PD-1 Fc protein (Q9NZQ7 19-238 limits assumed): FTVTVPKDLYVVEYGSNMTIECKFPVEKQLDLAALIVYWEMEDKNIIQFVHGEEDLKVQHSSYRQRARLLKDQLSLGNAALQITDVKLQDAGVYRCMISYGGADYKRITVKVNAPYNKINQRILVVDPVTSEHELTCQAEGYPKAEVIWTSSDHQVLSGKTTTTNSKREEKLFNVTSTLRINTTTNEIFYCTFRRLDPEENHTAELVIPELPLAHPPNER

Row | SMILES | IC50 [nM]
1 | COc1nc(-c2cccc(-c3cccc(-c4ccn5c(=O)c(CNC[C@@H]6CCC(=O)N6)ccc5c4)c3Cl)c2Cl)ccc1CNC[C@@H]1CCC(=O)N1 [Example 85, 8-(2,2′-Dichloro-3′-(6-methoxy-5-(((((S)-5-oxopyrrolidin-2-yl)methyl)amino)methyl)pyridin-2-yl)-[1,1′-biphenyl]-3-yl)-3-(((((S)-5-oxopyrrolidin-2-yl)methyl)amino)methyl)-4H-quinolizin-4-one] | 2.5
2 | COc1nc(-c2cc(F)cc(-c3cccc(-c4ccn5c(=O)c(CNC[C@@H]6CCC(=O)N6)cnc5c4)c3Cl)c2Cl)ccc1CNC[C@@H]1CCC(=O)N1 [Example 86, 8-(2,2′-Dichloro-5′-fluoro-3′-(6-methoxy-5-(((((S)-5-oxopyrrolidin-2-yl)methyl)amino)methyl)pyridin-2-yl)-[1,1′-biphenyl]-3-yl)-3-(((((S)-5-oxopyrrolidin-2-yl)methyl)amino)methyl)-4H-pyrido[1,2-a]pyrimidin-4-one] | 4.1
3 | O=C1CC[C@@H](CNCc2ccc(-c3cccc(-c4cccc(-c5ccn6c(=O)c(CNC[C@@H]7CCC(=O)N7)cnc6c5)c4Cl)c3Cl)cc2OC(F)(F)F)N1 [Example 87, 8-(2,2′-dichloro-4″-(((((S)-5-oxopyrrolidin-2-yl)methyl)amino)methyl)-3″-(trifluoromethoxy)-[1,1′:3′,1″-terphenyl]-3-yl)-3-(((((S)-5-oxopyrrolidin-2-yl)methyl)amino)methyl)-4H-pyrido[1,2-a]pyrimidin-4-one] | 2.6
4 | Cc1c(-c2ccn3c(=O)c(CNC[C@@H]4CCC(=O)N4)cnc3c2)cccc1-c1cccc(-c2ccc(CNC[C@@H]3CCC(=O)N3)c(OC(F)(F)F)c2)c1Cl [Example 88, 8-(2′-Chloro-2-methyl-4″-(((((S)-5-oxopyrrolidin-2-yl)methyl)amino)methyl)-3″-(trifluoromethoxy)-[1,1′:3′,1″-terphenyl]-3-yl)-3-(((((S)-5-oxopyrrolidin-2-yl)methyl)amino)methyl)-4H-pyrido[1,2-a]pyrimidin-4-one] | 11
5 | CNc1nc(-c2cccc(-c3cccc(-c4ccn5c(=O)c(CNC[C@@H]6CCC(=O)N6)cnc5c4)c3Cl)c2Cl)ccc1CNC[C@@H]1CCC(=O)N1 [Example 89, 8-(2,2′-Dichloro-3′-(6-(methylamino)-5-(((((S)-5-oxopyrrolidin-2-yl)methyl)amino)methyl)pyridin-2-yl)-[1,1′-biphenyl]-3-yl)-3-(((((S)-5-oxopyrrolidin-2-yl)methyl)amino)methyl)-4H-pyrido[1,2-a]pyrimidin-4-one] | 3.5
6 | COc1cc(-c2cccc(-c3cccc(-c4ccn5c(=O)c(CNC[C@@H]6CCC(=O)N6)cnc5c4)c3Cl)c2Cl)ccc1CNC[C@@H]1CCC(=O)N1 [Example 90, 8-(2,2′-Dichloro-3″-methoxy-4″-(((((S)-5-oxopyrrolidin-2-yl)methyl)amino)methyl)-[1,1′:3′,1″-terphenyl]-3-yl)-3-(((((S)-5-oxopyrrolidin-2-yl)methyl)amino)methyl)-4H-pyrido[1,2-a]pyrimidin-4-one] | 1.5
7 | COc1nc(-c2cccc(-c3cccc(-c4ccn5c(=O)c(CN6CC[C@H](C(=O)O)C6)cnc5c4)c3Cl)c2Cl)cnc1CN1CC(CO)C1 [Example 92, (S)-1-((8-(2,2′-Dichloro-3′-(5-((3-(hydroxymethyl)azetidin-1-yl)methyl)-6-methoxypyrazin-2-yl)-[1,1′-biphenyl]-3-yl)-4-oxo-4H-pyrido[1,2-a]pyrimidin-3-yl)methyl)pyrrolidine-3-carboxylic acid] | 0.3
8 | COc1nc(-c2cccc(-c3cccc(-c4ccn5c(=O)c(CN6CC(C(=O)O)C6)cnc5c4)c3Cl)c2Cl)cnc1CN1CC(CO)C1 [Example 93, 1-((8-(2,2′-Dichloro-3′-(5-((3-(hydroxymethyl)azetidin-1-yl)methyl)-6-methoxypyrazin-2-yl)-[1,1′-biphenyl]-3-yl)-4-oxo-4H-pyrido[1,2-a]pyrimidin-3-yl)methyl)azetidine-3-carboxylic acid] | 0.3
9 | COc1nc(-c2cccc(-c3cccc(-c4ccn5c(=O)c(CN6CC[C@H](C(=O)O)C6)cnc5c4)c3Cl)c2Cl)ccc1CNC[C@@H]1CCC(=O)N1 [Example 94, (S)-1-((8-(2,2′-Dichloro-3′-(6-methoxy-5-(((((S)-5-oxopyrrolidin-2-yl)methyl)amino)methyl)pyridin-2-yl)-[1,1′-biphenyl]-3-yl)-4-oxo-4H-pyrido[1,2-a]pyrimidin-3-yl)methyl)pyrrolidine-3-carboxylic acid] | 0.3
10 | COc1nc(-c2cccc(-c3cccc(-c4ccn5c(=O)c(CNC[C@@H]6CCC(=O)N6)cnc5c4)c3Cl)c2C(F)(F)F)ccc1CNC[C@@H]1CCC(=O)N1 [Example 95, 8-(2-Chloro-3′-(6-methoxy-5-(((((S)-5-oxopyrrolidin-2-yl)methyl)amino)methyl)pyridin-2-yl)-2′-(trifluoromethyl)-[1,1′-biphenyl]-3-yl)-3-(((((S)-5-oxopyrrolidin-2-yl)methyl)amino)methyl)-4H-pyrido[1,2-a]pyrimidin-4-one] | 23
11 | COc1nc(-c2cccc(-c3cccc(-c4ccn5c(=O)c(CNC[C@@H]6CCC(=O)N6)cnc5c4)c3C)c2C(F)(F)F)ccc1CNC[C@@H]1CCC(=O)N1 [Example 96, 8-(3′-(6-Methoxy-5-(((((S)-5-oxopyrrolidin-2-yl)methyl)amino)methyl)pyridin-2-yl)-2-methyl-2′-(trifluoromethyl)-[1,1′-biphenyl]-3-yl)-3-(((((S)-5-oxopyrrolidin-2-yl)methyl)amino)methyl)-4H-pyrido[1,2-a]pyrimidin-4-one] | 68
12 | COc1nc(-c2cc(F)cc(-c3cccc(-c4ccn5c(=O)c(CNC[C@@H]6CCC(=O)N6)cnc5c4)c3C)c2Cl)ccc1CNC[C@@H]1CCC(=O)N1 [Example 97, 8-(2′-Chloro-5′-fluoro-3′-(6-methoxy-5-(((((S)-5-oxopyrrolidin-2-yl)methyl)amino)methyl)pyridin-2-yl)-2-methyl-[1,1′-biphenyl]-3-yl)-3-(((((S)-5-oxopyrrolidin-2-yl)methyl)amino)methyl)-4H-pyrido[1,2-a]pyrimidin-4-one] | 5.1
13 | COc1nc(-c2cccc(-c3cccc(-c4ccn5c(=O)c(CN6CC(C(=O)O)C6)cnc5c4)c3Cl)c2Cl)ccc1CNC[C@@H]1CCC(=O)N1 [Example 98, (S)-1-((8-(2,2′-Dichloro-3′-(6-methoxy-5-((((5-oxopyrrolidin-2-yl)methyl)amino)methyl)pyridin-2-yl)-[1,1′-biphenyl]-3-yl)-4-oxo-4H-pyrido[1,2-a]pyrimidin-3-yl)methyl)azetidine-3-carboxylic acid] | 0.3
14 | COc1nc(-c2cccc(-c3cccc(-c4cn5cc(CNC[C@@H]6CCC(=O)N6)ccc5n4)c3Cl)c2Cl)ccc1CNC[C@@H]1CCC(=O)N1 [Example 99, (S)-5-((((6-(2,2′-Dichloro-3′-(6-(((((S)-5-oxopyrrolidin-2-yl)methyl)amino)methyl)imidazo[1,2-a]pyridin-2-yl)-[1,1′-biphenyl]-3-yl)-2-methoxypyridin-3-yl)methyl)amino)methyl)pyrrolidin-2-one] | 4.8
15 | COc1nc(-c2cccc(-c3cccc(-c4cn5cc(CNCCO)ccc5n4)c3Cl)c2Cl)ccc1CNCCO [Example 100, 2-(((2-(2,2′-Dichloro-3′-(5-(((2-hydroxyethyl)amino)methyl)-6-methoxypyridin-2-yl)-[1,1′-biphenyl]-3-yl)imidazo[1,2-a]pyridin-6-yl)methyl)amino)ethan-1-ol] | 4.3
16 | COC(=O)[C@H](CO)NCc1cnc2cc(-c3cccc(-c4cccc(-c5ccc(CNC[C@@H]6CCC(=O)N6)c(OC)n5)c4Cl)c3Cl)ccn2c1=O [Example 101, Methyl ((8-(2,2′-dichloro-3′-(6-methoxy-5-(((((S)-5-oxopyrrolidin-2-yl)methyl)amino)methyl)pyridin-2-yl)-[1,1′-biphenyl]-3-yl)-4-oxo-4H-pyrido[1,2-a]pyrimidin-3-yl)methyl)-L-serinate] | 2.1
17 | COc1nc(-c2cccc(-c3cccc(-c4ccn5c(=O)c(CNC[C@@H]6CCC(=O)N6)cnc5c4)c3Cl)c2Cl)ccc1CNCCO [Example 102, (S)-8-(2,2′-Dichloro-3′-(5-(((2-hydroxyethyl)amino)methyl)-6-methoxypyridin-2-yl)-[1,1′-biphenyl]-3-yl)-3-((((5-oxopyrrolidin-2-yl)methyl)amino)methyl)-4H-pyrido[1,2-a]pyrimidin-4-one] | 7.1
18 | COc1nc(-c2cccc(-c3cccc(-c4ccn5c(=O)c(CNC[C@@H]6CCC(=O)N6)cnc5c4)c3Cl)c2Cl)ccc1CNCCNC(C)=O [Example 103, (S)—N-(2-(((6-(2,2′-Dichloro-3′-(4-oxo-3-((((5-oxopyrrolidin-2-yl)methyl)amino)methyl)-4H-pyrido[1,2-a]pyrimidin-8-yl)-[1,1′-biphenyl]-3-yl)-2-methoxypyridin-3-yl)methyl)amino)ethyl)acetamide] | 5
19 | COc1cc(-c2cccc(-c3cccc(-c4ccn5c(=O)c(CNC[C@@H]6CCC(=O)N6)cnc5c4)c3Cl)c2Cl)cc(F)c1CNC[C@@H]1CCC(=O)N1 [Example 104, 8-(2,2′-Dichloro-3″-fluoro-5″-methoxy-4″-(((((S)-5-oxopyrrolidin-2-yl)methyl)amino)methyl)-[1,1′:3′,1″-terphenyl]-3-yl)-3-(((((S)-5-oxopyrrolidin-2-yl)methyl)amino)methyl)-4H-pyrido[1,2-a]pyrimidin-4-one] | 8.8
20 | COc1c(CNC[C@@H]2CCC(=O)N2)ccc(-c2cccc(-c3cccc(-c4ccn5c(=O)c(CNC[C@@H]6CCC(=O)N6)cnc5c4)c3Cl)c2Cl)c1F [Example 105, 8-[2-Chloro-3-[2-chloro-3-[2-fluoro-3-methoxy-4-[[[(2S)-5-oxopyrrolidin-2-yl]methylamino]methyl]phenyl]phenyl]phenyl]-3-[[[(2S)-5-oxopyrrolidin-2-yl]methylamino]methyl]pyrido[1,2-a]pyrimidin-4-one] | 5.9
